Source: patent publication US5371070A, “Bicyclic GnRH antagonists and a method for regulating the secretion of gonadotropins” (The Salk Institute for Biological Studies, priority 1992, dated 1994)
Positions of bridges follow the written chain, without caps; N, C: chain ends. Non-standard residues stand in square brackets, D forms with d. Residues, ends and D or L forms follow the SMILES beside them. Phe(4-Cl) = N[C@@H](Cc1ccc(Cl)cc1)C(=O)O; dPhe(4-Cl) = N[C@H](Cc1ccc(Cl)cc1)C(=O)O; 2Nal = N[C@@H](Cc1ccc2ccccc2c1)C(=O)O; d2Nal = N[C@H](Cc1ccc2ccccc2c1)C(=O)O; d3Pal = N[C@H](Cc1cccnc1)C(=O)O; Orn = NCCC[C@H](N)C(=O)O; Dab = NCC[C@H](N)C(=O)O; Dap = NC[C@H](N)C(=O)O; βAla = NCCC(=O)O; Sar = CNCC(=O)O

System: ovulation in mature female Sprague-Dawley rats
Test: rat anti-ovulation assay (in vivo)
Settings: for Rats Ovulating: injected about noon on day of proestrus, rats ovulating/rats treated
From the text: These improved bicyclic GnRH antagonists are generally characterized by a substantial ability to suppress the secretion of LH in a standard rat pituitary cell assay when administered together with a concentration of 3 nanomolar GnRH, the details of which assay are set forth in Rivier and Vale, Life Sciences, 23, 869-876 (1978). By substantial ability is meant that, at a concentration of GnRH antagonist to GnRH of about 2/1 or less, the amount of LH secreted is reduced by 50% (IDR50). Moreover, when tested in vivo in the standard rat anti-ovulation assay (Corbin et al. Endocrine Res. Commun., 2, 1 (1975)), these GnRH antagonists show complete blockage of ovulation when administered at about 200 μg or less per kilogram of body weight.
In vivo testing determines effectiveness to prevent ovulation in female rats. In this test, a specified number of mature female Sprague-Dawley rats, e.g. usually five to ten, each having a body weight from about 225 to 250 grams, is injected with a specified microgram dosage of peptide in either saline or bacteriostatic water at about noon on the day of proestrus. Proestrus is the afternoon […]. A separate female rat group is used as a control to which the peptide is not administered. Each of the control female rats ovulates on the evening of proestrus, and the number of the treated rats which ovulate is recorded. The results are set forth in the following Table A, wherein the dosages stated are in micrograms per rat.

SMILES | Rats Ovulating (dosage 2.5 micrograms per rat) | Rats Ovulating (dosage 5 micrograms per rat) | Rats Ovulating (dosage 10 micrograms per rat) | other results
CC(=O)N[C@H](Cc1ccc2ccccc2c1)C(=O)N[C@H](Cc1ccc(Cl)cc1)C(=O)N[C@H](Cc1cccnc1)C(=O)N[C@H]1CC(=O)NC[C@@H](C(N)=O)NC(=O)[C@@H]2CCCN2C(=O)[C@@H]2CCNC(=O)[C@H](CCCNC(=N)N)NC(=O)CC[C@H](NC1=O)C(=O)N[C@H](CCCNC(=N)N)C(=O)N[C@@H](CC(C)C)C(=O)N2 [Peptide 1, (Cyclo 4-10,5,5'-8)[Ac-β-D-2NAL^1, (4Cl)D--Phe^2, D-3PAL^3, Asp^4, Glu^5 (Arg), D--Arg^6, Dbu^8, Dpr^10]-GnRH] (Ac-[d2Nal][dPhe(4-Cl)][d3Pal]DE[dR]L[Dab]P[Dap]-NH2; lactam 4-10; linker 5-8 via R) | 0/4 | – | – | effectiveness to prevent ovulation of female rats (at a very low dosage): significantly effective; Rats Ovulating (dosage 1.0 micrograms per rat): 2/11; dose considered totally effective to prevent ovulation (female rats): about 50 micrograms per Kg of body weight; dose at which it should likely be effective to prevent ovulation (female rats, stated as likely): about 5 μg/Kg
CC(=O)N[C@H](Cc1ccc2ccccc2c1)C(=O)N[C@H](Cc1ccc(Cl)cc1)C(=O)N[C@H](Cc1cccnc1)C(=O)N[C@H]1CC(=O)NC[C@@H](C(N)=O)NC(=O)[C@@H]2CCCN2C(=O)[C@@H]2CCNC(=O)CNC(=O)CC[C@H](NC1=O)C(=O)N[C@H](CCCNC(=N)N)C(=O)N[C@@H](CC(C)C)C(=O)N2 [Peptide 2] (Ac-[d2Nal][dPhe(4-Cl)][d3Pal]DE[dR]L[Dab]P[Dap]-NH2; lactam 4-10; linker 5-8 via G) | 6/8 | 2/8 | 1/6 | Rats Ovulating (dosage 25 micrograms per rat): 0/3
CC(=O)N[C@H](Cc1ccc2ccccc2c1)C(=O)N[C@H](Cc1ccc(Cl)cc1)C(=O)N[C@H](Cc1cccnc1)C(=O)N[C@H]1CC(=O)NC[C@@H](C(N)=O)NC(=O)[C@@H]2CCCN2C(=O)[C@@H]2CCNC(=O)CNC(=O)C[C@H](NC1=O)C(=O)N[C@H](CCCNC(=N)N)C(=O)N[C@@H](CC(C)C)C(=O)N2 [Peptide 3] (Ac-[d2Nal][dPhe(4-Cl)][d3Pal]DD[dR]L[Dab]P[Dap]-NH2; lactam 4-10; linker 5-8 via G) | – | – | 4/6 | Rats Ovulating (dosage 25 micrograms per rat): 0/5
CC(=O)N[C@H](Cc1ccc2ccccc2c1)C(=O)N[C@H](Cc1ccc(Cl)cc1)C(=O)N[C@H](Cc1cccnc1)C(=O)N[C@H]1CC(=O)NC[C@@H](C(N)=O)NC(=O)[C@@H]2CCCN2C(=O)[C@@H]2CCNC(=O)CCNC(=O)C[C@H](NC1=O)C(=O)N[C@H](CCCNC(=N)N)C(=O)N[C@@H](CC(C)C)C(=O)N2 [Peptide 4] (Ac-[d2Nal][dPhe(4-Cl)][d3Pal]DD[dR]L[Dab]P[Dap]-NH2; lactam 4-10; linker 5-8 via βAla) | 9/14 | 7/10 | 4/5 | –
CC(=O)N[C@H](Cc1ccc2ccccc2c1)C(=O)N[C@H](Cc1ccc(Cl)cc1)C(=O)N[C@H](Cc1cccnc1)C(=O)N[C@H]1CC(=O)NC[C@@H](C(N)=O)NC(=O)[C@@H]2CCCN2C(=O)[C@@H]2CCNC(=O)CN(C)C(=O)CC[C@H](NC1=O)C(=O)N[C@H](CCCNC(=N)N)C(=O)N[C@@H](CC(C)C)C(=O)N2 [Peptide 5] (Ac-[d2Nal][dPhe(4-Cl)][d3Pal]DE[dR]L[Dab]P[Dap]-NH2; lactam 4-10; linker 5-8 via Sar) | – | – | 4/9 | –
CC(=O)N[C@H](Cc1ccc2ccccc2c1)C(=O)N[C@H](Cc1ccc(Cl)cc1)C(=O)N[C@H](Cc1cccnc1)C(=O)N[C@H]1CC(=O)NC[C@@H](C(N)=O)NC(=O)[C@@H]2CCCN2C(=O)[C@@H]2CNC(=O)[C@H](Cc3ccccc3)NC(=O)CC[C@H](NC1=O)C(=O)N[C@H](CCCNC(=N)N)C(=O)N[C@@H](CC(C)C)C(=O)N2 [Peptide 6] (Ac-[d2Nal][dPhe(4-Cl)][d3Pal]DE[dR]L[Dap]P[Dap]-NH2; lactam 4-10; linker 5-8 via F) | – | – | 6/8 | –
CC(=O)N[C@H](Cc1ccc2ccccc2c1)C(=O)N[C@H](Cc1ccc(Cl)cc1)C(=O)N[C@H](Cc1cccnc1)C(=O)N[C@H]1CC(=O)NC[C@@H](C(N)=O)NC(=O)[C@@H]2CCCN2C(=O)[C@@H]2CCNC(=O)[C@H](Cc3ccccc3)NC(=O)CC[C@H](NC1=O)C(=O)N[C@H](CCCNC(=N)N)C(=O)N[C@@H](CC(C)C)C(=O)N2 [Peptide 7] (Ac-[d2Nal][dPhe(4-Cl)][d3Pal]DE[dR]L[Dab]P[Dap]-NH2; lactam 4-10; linker 5-8 via F) | 3/10 | 1/8 | 0/9 | Rats Ovulating (dosage 1.0 micrograms per rat): 4/7
CC(=O)N[C@H](Cc1ccc2ccccc2c1)C(=O)N[C@H](Cc1ccc(Cl)cc1)C(=O)N[C@H](Cc1cccnc1)C(=O)N[C@H]1CC(=O)NC[C@@H](C(N)=O)NC(=O)[C@@H]2CCCN2C(=O)[C@@H]2CCCNC(=O)[C@H](Cc3ccccc3)NC(=O)CC[C@H](NC1=O)C(=O)N[C@H](CCCNC(=N)N)C(=O)N[C@@H](CC(C)C)C(=O)N2 [Peptide 8] (Ac-[d2Nal][dPhe(4-Cl)][d3Pal]DE[dR]L[Orn]P[Dap]-NH2; lactam 4-10; linker 5-8 via F) | – | – | 5/5 | Rats Ovulating (dosage 25 micrograms per rat): 0/8
CC(=O)N[C@H](Cc1ccc2ccccc2c1)C(=O)N[C@H](Cc1ccc(Cl)cc1)C(=O)N[C@H](Cc1cccnc1)C(=O)N[C@H]1CC(=O)NC[C@@H](C(N)=O)NC(=O)[C@@H]2CCCN2C(=O)[C@@H]2CCNC(=O)[C@H](Cc3ccccc3)NC(=O)C[C@H](NC1=O)C(=O)N[C@H](CCCNC(=N)N)C(=O)N[C@@H](CC(C)C)C(=O)N2 [Peptide 9] (Ac-[d2Nal][dPhe(4-Cl)][d3Pal]DD[dR]L[Dab]P[Dap]-NH2; lactam 4-10; linker 5-8 via F) | – | – | 0/4 | –
CC(=O)N[C@H](Cc1ccc2ccccc2c1)C(=O)N[C@H](Cc1ccc(Cl)cc1)C(=O)N[C@H](Cc1cccnc1)C(=O)N[C@H]1CC(=O)NC[C@@H](C(N)=O)NC(=O)[C@@H]2CCCN2C(=O)[C@@H]2CCCNC(=O)[C@H](Cc3ccccc3)NC(=O)C[C@H](NC1=O)C(=O)N[C@H](CCCNC(=N)N)C(=O)N[C@@H](CC(C)C)C(=O)N2 [Peptide 10] (Ac-[d2Nal][dPhe(4-Cl)][d3Pal]DD[dR]L[Orn]P[Dap]-NH2; lactam 4-10; linker 5-8 via F) | 6/6 | 0/4 | – | –
CC(=O)N[C@H](Cc1ccc2ccccc2c1)C(=O)N[C@H](Cc1ccc(Cl)cc1)C(=O)N[C@H](Cc1cccnc1)C(=O)N[C@H]1CC(=O)NC[C@@H](C(N)=O)NC(=O)[C@@H]2CCCN2C(=O)[C@@H]2CCNC(=O)[C@H](Cc3ccc4ccccc4c3)NC(=O)CC[C@H](NC1=O)C(=O)N[C@H](CCCNC(=N)N)C(=O)N[C@@H](CC(C)C)C(=O)N2 [Peptide 11] (Ac-[d2Nal][dPhe(4-Cl)][d3Pal]DE[dR]L[Dab]P[Dap]-NH2; lactam 4-10; linker 5-8 via 2Nal) | – | 1/7 | 0/4 | –
CC(=O)N[C@H](Cc1ccc2ccccc2c1)C(=O)N[C@H](Cc1ccc(Cl)cc1)C(=O)N[C@H](Cc1cccnc1)C(=O)N[C@H]1CC(=O)NC[C@@H](C(N)=O)NC(=O)[C@@H]2CCCN2C(=O)[C@@H]2CCNC(=O)[C@H](Cc3c[nH]cn3)NC(=O)CC[C@H](NC1=O)C(=O)N[C@H](CCCNC(=N)N)C(=O)N[C@@H](CC(C)C)C(=O)N2 [Peptide 12] (Ac-[d2Nal][dPhe(4-Cl)][d3Pal]DE[dR]L[Dab]P[Dap]-NH2; lactam 4-10; linker 5-8 via H) | 3/8 | – | – | Rats Ovulating (dosage 1.0 micrograms per rat): 4/4
CC(=O)N[C@H](Cc1ccc2ccccc2c1)C(=O)N[C@H](Cc1ccc(Cl)cc1)C(=O)N[C@H](Cc1cccnc1)C(=O)N[C@H]1CC(=O)NC[C@@H](C(N)=O)NC(=O)[C@@H]2CCCN2C(=O)[C@@H]2CCNC(=O)[C@H](Cc3ccc(Cl)cc3)NC(=O)CC[C@H](NC1=O)C(=O)N[C@H](CCCNC(=N)N)C(=O)N[C@@H](CC(C)C)C(=O)N2 [Peptide 14] (Ac-[d2Nal][dPhe(4-Cl)][d3Pal]DE[dR]L[Dab]P[Dap]-NH2; lactam 4-10; linker 5-8 via Phe(4-Cl)) | 3/4 | 0/6 | – | –
